Test results reported in ChEMBL document CHEMBL1133900, “Improved synthesis and evaluation of 17-substituted aminoalkylgeldanamycin derivatives applicable to drug delivery systems” (Bioorg Med Chem Lett, 2001).

System: A2780
Assay: Compound was evaluated for antiproliferative activity against human ovarian carcinoma cell line A2780.
Format: functional, cell-based

CO[C@H]1/C=C\C=C(/C)C(=O)NC2=CC(=O)C(NCC(O)CN)=C(C[C@@H](C)C[C@H](OC)[C@H](O)[C@@H](C)/C=C(\C)[C@@H]1OC(N)=O)C2=O (stereo partly drawn)
IC50: 234 nM

CO[C@H]1/C=C\C=C(/C)C(=O)NC2=CC(=O)C(NCCCN)=C(C[C@@H](C)C[C@H](OC)[C@H](O)[C@@H](C)/C=C(\C)[C@@H]1OC(N)=O)C2=O
IC50: 136 nM

COC1=C2C[C@@H](C)C[C@H](OC)[C@H](O)[C@@H](C)/C=C(\C)[C@H](OC(N)=O)[C@@H](OC)/C=C\C=C(/C)C(=O)NC(=CC1=O)C2=O [GELDANAMYCIN]
IC50: 3.4 nM
